# Experimental data: PubChem BioAssay AID1963872 (Molecular Pharmacology Branch, DTP, NCI, 2024)
# Test system: KRAS patient-derived spheroids with HUVEC/MSC, viability
# Assay: Anticancer human tumor 519858-162-T-J1-PDC patient-derived colon adenocarcinoma cell line growth inhibition [KRAS2]
# Details: for IC50: curve of first compound; for viability, T/C: stronger effect = lower value
# Method in brief: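 KRAS-mutant tumor cells were grown as spheroids with HUVEC endothelial cells and human MSCs as stroma. Targeted agents were tested alone and with KRAS pathway inhibitors. Doses started at or near clinical Cmax, or 10 microM, descending half-log.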
# [1] = second compound 0.1 µM, first compound 0.01 µM
# [2] = second compound 0.1 µM, first compound 0.0316 µM
# [3] = second compound 0.1 µM, first compound 0.1 µM
# [4] = second compound 0.316 µM, first compound 0.01 µM
# [5] = second compound 0.316 µM, first compound 0.0316 µM
# [6] = second compound 0.316 µM, first compound 0.1 µM
# [7] = second compound 1 µM, first compound 0.01 µM
# [8] = second compound 1 µM, first compound 0.0316 µM
# [9] = second compound 1 µM, first compound 0.1 µM
# [10] = second compound 3.16 µM, first compound 0.01 µM
# [11] = second compound 3.16 µM, first compound 0.0316 µM
# [12] = second compound 3.16 µM, first compound 0.1 µM
# [13] = second compound 0.1 µM, first compound 0.000316 µM
# [14] = second compound 0.1 µM, first compound 0.001 µM
# [15] = second compound 0.1 µM, first compound 0.00316 µM
# [16] = second compound 0.316 µM, first compound 0.000316 µM
# [17] = second compound 0.316 µM, first compound 0.001 µM
# [18] = second compound 0.316 µM, first compound 0.00316 µM
# [19] = second compound 1 µM, first compound 0.000316 µM
# [20] = second compound 1 µM, first compound 0.001 µM
# [21] = second compound 1 µM, first compound 0.00316 µM
# [22] = second compound 3.16 µM, first compound 0.000316 µM
# [23] = second compound 3.16 µM, first compound 0.001 µM
# [24] = second compound 3.16 µM, first compound 0.00316 µM
# [25] = second compound 10 µM, first compound 0.000316 µM
# [26] = second compound 10 µM, first compound 0.001 µM
# [27] = second compound 10 µM, first compound 0.00316 µM
# [28] = second compound 10 µM, first compound 0.01 µM
# [29] = second compound 10 µM, first compound 0.0316 µM
# 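Note: compound exposure lasted seven days before readout.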
# 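Throughout, for viability, T/C: 100% = DMSO vehicle control viability.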
smiles,measurement,setting,value
CC(=O)OC12COC1CC(O)C1(C)C(=O)C(O)C3=C(C)C(OC(=O)C(O)C(NC(=O)OC(C)(C)C)c4ccccc4)CC(O)(C(OC(=O)c4ccccc4)C21)C3(C)C (stereo not given) + C=CC(=O)N1CCN(c2nc(OCC3CCCN3C)nc3c2CCN(c2cccc4cccc(C)c24)C3)CC1CC#N,IC50,second compound 0.0316 µM,> 3160 nM
same,IC50,second compound 0.1 µM,> 3160 nM
same,IC50,second compound 0.316 µM,> 3160 nM
same,IC50,second compound 1 µM,> 3160 nM
same,IC50,second compound 3.16 µM,> 3160 nM
same,"viability, T/C","second compound 0.0316 µM, first compound 0.01 µM",107%
same,"viability, T/C","second compound 0.0316 µM, first compound 0.0316 µM",86%
same,"viability, T/C","second compound 0.0316 µM, first compound 0.1 µM",92.1%
same,"viability, T/C","second compound 0.0316 µM, first compound 0.316 µM",85.1%
same,"viability, T/C","second compound 0.0316 µM, first compound 1 µM",70%
same,"viability, T/C","second compound 0.0316 µM, first compound 3.16 µM",68.5%
same,"viability, T/C",[1],83%
same,"viability, T/C",[2],91.2%
same,"viability, T/C",[3],68.5%
same,"viability, T/C","second compound 0.1 µM, first compound 0.316 µM",69.4%
same,"viability, T/C","second compound 0.1 µM, first compound 1 µM",62.4%
same,"viability, T/C","second compound 0.1 µM, first compound 3.16 µM",75.1%
same,"viability, T/C",[4],67.5%
same,"viability, T/C",[5],64.6%
same,"viability, T/C",[6],86.9%
same,"viability, T/C","second compound 0.316 µM, first compound 0.316 µM",75%
same,"viability, T/C","second compound 0.316 µM, first compound 1 µM",58.7%
same,"viability, T/C","second compound 0.316 µM, first compound 3.16 µM",70.7%
same,"viability, T/C",[7],54.5%
same,"viability, T/C",[8],84.1%
same,"viability, T/C",[9],74.4%
same,"viability, T/C","second compound 1 µM, first compound 0.316 µM",73.2%
same,"viability, T/C","second compound 1 µM, first compound 1 µM",47.1%
same,"viability, T/C","second compound 1 µM, first compound 3.16 µM",74%
same,"viability, T/C",[10],94.1%
same,"viability, T/C",[11],80.1%
same,"viability, T/C",[12],98.4%
same,"viability, T/C","second compound 3.16 µM, first compound 0.316 µM",75.1%
same,"viability, T/C","second compound 3.16 µM, first compound 1 µM",71.5%
same,"viability, T/C","second compound 3.16 µM, first compound 3.16 µM",75.4%
CC(=O)Nc1cccc(-n2c(=O)n(C3CC3)c(=O)c3c(Nc4ccc(I)cc4F)n(C)c(=O)c(C)c32)c1 + C=CC(=O)N1CCN(c2nc(=O)n(-c3c(C)ccnc3C(C)C)c3nc(-c4c(O)cccc4F)c(F)cc23)C(C)C1,IC50,second compound 0.1 µM,6.3 nM
same,IC50,second compound 0.316 µM,5.48 nM
same,IC50,second compound 1 µM,7.54 nM
same,IC50,second compound 3.16 µM,7.41 nM
same,IC50,second compound 10 µM,4.51 nM
same,"viability, T/C","second compound 0.1 µM, first compound 0.0001 µM",104%
same,"viability, T/C",[13],99.5%
same,"viability, T/C",[14],66.3%
same,"viability, T/C",[15],83.8%
same,"viability, T/C",[1],28.9%
same,"viability, T/C",[2],20%
same,"viability, T/C","second compound 0.316 µM, first compound 0.0001 µM",85.3%
same,"viability, T/C",[16],97.7%
same,"viability, T/C",[17],93.4%
same,"viability, T/C",[18],59.4%
same,"viability, T/C",[4],40.7%
same,"viability, T/C",[5],23.8%
same,"viability, T/C","second compound 1 µM, first compound 0.0001 µM",96.6%
same,"viability, T/C",[19],67.9%
same,"viability, T/C",[20],79.7%
same,"viability, T/C",[21],74.9%
same,"viability, T/C",[7],41.9%
same,"viability, T/C",[8],25.1%
same,"viability, T/C","second compound 3.16 µM, first compound 0.0001 µM",74.2%
same,"viability, T/C",[22],79%
same,"viability, T/C",[23],76.3%
same,"viability, T/C",[24],102%
same,"viability, T/C",[10],38.4%
same,"viability, T/C",[11],19.1%
same,"viability, T/C","second compound 10 µM, first compound 0.0001 µM",89.7%
same,"viability, T/C",[25],90.5%
same,"viability, T/C",[26],107%
same,"viability, T/C",[27],61.5%
same,"viability, T/C",[28],31%
same,"viability, T/C",[29],17.4%
CC(C)n1nc(-c2ccc3oc(N)nc3c2)c2c(N)ncnc21 + CNCc1ccccc1-c1csc(C(C)Nc2nc(C)nc3cc(OC)c(OC)cc23)c1,IC50,second compound 0.1 µM,> 100 nM
same,IC50,second compound 0.316 µM,> 100 nM
same,IC50,second compound 1 µM,> 100 nM
same,IC50,second compound 3.16 µM,5.41 nM
same,IC50,second compound 10 µM,< 0.316 nM
same,"viability, T/C",[13],80.2%
same,"viability, T/C",[14],70.6%
same,"viability, T/C",[15],77.7%
same,"viability, T/C",[1],72.5%
same,"viability, T/C",[2],67%
same,"viability, T/C",[3],53.5%
same,"viability, T/C",[16],76.5%
same,"viability, T/C",[17],68.5%
same,"viability, T/C",[18],69.5%
same,"viability, T/C",[4],83.2%
same,"viability, T/C",[5],66.8%
same,"viability, T/C",[6],62.5%
same,"viability, T/C",[19],91.9%
same,"viability, T/C",[20],69.1%
same,"viability, T/C",[21],78.2%
same,"viability, T/C",[7],42.7%
same,"viability, T/C",[8],73.1%
same,"viability, T/C",[9],86.3%
same,"viability, T/C",[22],68%
same,"viability, T/C",[23],65%
same,"viability, T/C",[24],55.1%
same,"viability, T/C",[10],39.8%
same,"viability, T/C",[11],49.6%
same,"viability, T/C",[12],43.1%
same,"viability, T/C",[25],0.52%
same,"viability, T/C",[26],0.58%
same,"viability, T/C",[27],0.46%
same,"viability, T/C",[28],0.32%
same,"viability, T/C",[29],0.36%
same,"viability, T/C","second compound 10 µM, first compound 0.1 µM",0.73%
